# According to patent US20050004167A1, “Branched chain amino acid-dependent aminotransferase inhibitors and their use in the treatment of neurodegenerative diseases” (WARNER-LAMBERT COMPANY LLC, priority 2001, published 2005):
# Where “and” joins values, the source holds several entries; their conditions need not be identical. Equal entries are not always repeated.
# Columns and labels:
# rat BCAT cytosolic form = molecular target: T1, rat BCAT cytosolic form (Rattus norvegicus, UniProt P54690); assay: In vitro coupled enzyme assay (glutamate dehydrogenase, NADH formation), rat BCATc; type: biochemical; details: recombinant rat BCATc, 37° C., 25 mM phosphate buffer pH 7.8; several values in a cell = repeat determinations; read-out: RrBCATc
# T1 construct: made in house; host or cells: E. coli BL21(DE3)
# T1 sequence (P54690 1-411): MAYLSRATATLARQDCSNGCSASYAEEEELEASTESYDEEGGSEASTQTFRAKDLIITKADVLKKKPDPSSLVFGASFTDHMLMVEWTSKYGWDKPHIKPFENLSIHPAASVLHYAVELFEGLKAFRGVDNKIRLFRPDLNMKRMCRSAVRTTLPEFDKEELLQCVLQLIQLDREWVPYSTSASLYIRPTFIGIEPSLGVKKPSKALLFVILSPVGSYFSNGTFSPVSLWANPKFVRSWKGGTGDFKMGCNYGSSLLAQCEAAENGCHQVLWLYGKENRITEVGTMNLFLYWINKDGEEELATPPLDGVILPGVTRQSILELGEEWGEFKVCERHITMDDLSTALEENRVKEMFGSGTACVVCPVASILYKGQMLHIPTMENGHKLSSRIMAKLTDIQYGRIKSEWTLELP
# Experimental: (§1) In vitro enzyme assay—human Branched Chain Amino Acid Aminotransferase cytosolic form (hBCATc) and mitochondrial form (hBCATm) as well as rat BCAT cytosolic form were assayed at 37° C. in 25 mM phosphate buffer pH 7.8. In addition, 2 mM DTT and 12.5 mM […] were added to the assay mixture. A coupling enzyme assay was used to monitor the production of glutamate. The formation of NADH from NAD+ at […] was followed on a 96-well plate Molecular Devices plate reader.
# (§2) The following components were used in this coupled assay: 4 mM ADP, 1 mM NAD+, 750 μM L-Leucine, 500 μM α-ketoglutarate, 10 μM pyridoxal phosphate, 1 unit glutamate dehydrogenase, and 1.25 μg of the appropriate BCAT enzyme. Inhibitions by compounds were assayed by adding various concentrations to this coupled assay procedure as a DMSO stock up to a 5% v/v DMSO/buffer ratio.
# (§3) Enzyme Preparation—humanBCATc and ratBCATc were expressed in BL21(DE3) cells. A growing culture of cells was induced with 1 mM IPTG at room temperature overnight. These cells were harvested by centrifugation at 10,000 g for 20 minutes. The supernatant was discarded, and the cells were stored at −80° C. until needed. The protein was purified by the following method. The cell paste was resuspended in extraction buffer (0.1 M phosphate, pH 8.0, with 0.01 M Tris-HCL and 5 mM TCEP and then lysed on a French Press at 1000 psi. The lysate was centrifuged at 10,000 g for 15 minutes, and the pellet was discarded. The supernatant was loaded onto a Hitrap Chelating column previously charged with 0.1 M NiSO4 and washed with 3 to 4 column volumes of extraction buffer. The column was then washed with 0.01 Tris, pH 7.5, 10% glycerol, 150 mM NaCl, 5 mM TCEP for two column volumes. The column was then further washed with two column volumes of 0.1 M phosphate, pH 6.0, 0.01 M Tris, 10% glycerol and 750 mM NaCl. Finally, the column was washed with two column volumes of the same buffer plus 50 mM imidazole. The BCAT enzyme was then eluted with the same buffer but with 350 mM imidazole. The eluant was then dialyzed overnight against 10 mM phosphate buffer pH 8.0, 10% glycerol, and 5 mM TCEP. The dialyzed protein was then loaded onto a Q-sepharose column and eluted using a salt gradient. Active fractions were collected and further purified on a Superose-12 column to yield pure BCAT protein.
# [1] = molecular target: T2, human Branched Chain Amino Acid Aminotransferase cytosolic form (hBCATc) (Homo sapiens, UniProt P54687); assay: In vitro coupled enzyme assay (glutamate dehydrogenase, NADH formation), human BCATc; type: biochemical; details: recombinant human BCATc, 37° C., 25 mM phosphate buffer pH 7.8; several values in a cell = repeat determinations; read-out: RhBCATc
# T2 construct: made in house; host or cells: E. coli BL21(DE3)
# T2 sequence (P54687 1-386): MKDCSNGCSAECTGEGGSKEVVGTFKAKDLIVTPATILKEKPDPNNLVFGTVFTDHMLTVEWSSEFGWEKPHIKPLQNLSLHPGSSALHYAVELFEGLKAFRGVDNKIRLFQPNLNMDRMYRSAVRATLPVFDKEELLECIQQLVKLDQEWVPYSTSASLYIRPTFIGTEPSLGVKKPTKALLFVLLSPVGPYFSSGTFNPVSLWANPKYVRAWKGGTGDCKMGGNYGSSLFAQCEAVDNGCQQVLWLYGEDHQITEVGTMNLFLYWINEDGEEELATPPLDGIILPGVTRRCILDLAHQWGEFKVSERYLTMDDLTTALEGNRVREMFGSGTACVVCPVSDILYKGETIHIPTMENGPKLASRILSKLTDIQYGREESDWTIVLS
# Experimental: as §1, §2, §3
SMILES,IC50 (rat BCAT cytosolic form) [nM],IC50 [1]
"COc1ccc2oc(C(=O)NNS(=O)(=O)c3ccccc3)c(OC(C)C)c2c1 [Example 57, 2-Benzofurancarboxylic acid, 5-methoxy-3-(1-methylethoxy), 2-(phenylsulfonyl)-hydrazide]",140,1140 nM
"COc1cc(OC)c2cc(C(=O)NNS(=O)(=O)c3ccccc3)oc2c1 [Example 60, 2-Benzofurancarboxylic acid, 4,6-dimethoxy-, 2-(phenylsulfonyl)hydrazide]",110,21100 nM and 12800 nM
"COc1c(C(=O)NNS(=O)(=O)c2ccccc2)oc2c(OC)cccc12 [Example 61, 2-Benzofurancarboxylic acid, 3,7-dimethoxy-, 2-(phenylsulfonyl)hydrazide]",100,1300 nM
"COc1c(C(=O)NNS(=O)(=O)c2ccccc2C(F)(F)F)oc2c(OC)cccc12 [Example 62, 2-Benzofurancarboxylic acid, 3,7-dimethoxy-, 2-[(2-trifluoromethylphenyl)-sulfonyl]hydrazide]",330,4770 nM
"COc1c(C(=O)NNS(=O)(=O)c2ccc(F)cc2)oc2c(OC)cccc12 [Example 63, 2-Benzofurancarboxylic acid, 3,7-dimethoxy-, 2-[(4-fluorophenyl)sulfonyl]-hydrazide]",5290,66300 nM
"COc1c(C(=O)NNS(=O)(=O)c2cccc(C)c2)oc2c(OC)cccc12 [Example 64, 2-Benzofurancarboxylic acid, 3,7-dimethoxy-, 2-[(3-methylphenyl)sulfonyl]-hydrazide]",190,3310 nM
"COc1c(C(=O)NNS(=O)(=O)c2ccccc2)oc2ccc(-c3ccccc3)cc12 [Example 65, 2-Benzofurancarboxylic acid, 3-methoxy-5-phenyl-, 2-(phenylsulfonyl)hydrazide]",100,3230 nM

# Now from value to compound:
IC50 (rat BCAT cytosolic form) [nM],IC50 [1],SMILES
2400,17300 nM,"COc1c(C(=O)NNS(=O)(=O)c2ccccc2)oc2c(-c3ccccc3)cccc12 [Example 67, 2-Benzofurancarboxylic acid, 3-methoxy-7-phenyl-, 2-(phenylsulfonyl)hydrazide]"
310,2780 nM,"COc1c(C(=O)NNS(=O)(=O)c2ccccc2)oc2cc3ccccc3cc12 [Example 68, Naptho[2,3-b]furan-2-carboxylic acid, 3-methoxy-, 2-(phenylsulfonyl)hydrazide]"
1890,14400 nM,"O=C(NNS(=O)(=O)c1ccccc1Br)c1cc2cc(Cl)cc(Cl)c2o1 [Example 73, 2-Benzofurancarboxylic acid, 5,7-dichloro 2-[(2-bromophenyl)sulfonyl]-hydrazide]"
350,6150 nM and 3000 nM,"Cc1ccc2oc(C(=O)NNS(=O)(=O)c3ccccc3)cc2c1 [Example 77, Benzofurancarboxylic acid, 5-methyl-, 2-(phenylsulfonyl)hydrazide]"
220,16900 nM and 1810 nM,"Cc1ccc2oc(C(=O)NNS(=O)(=O)c3ccccc3C(F)(F)F)cc2c1 [Example 79, 2-Benzofurancarboxylic acid, 5-methyl-, 2-[[2-(trifluoromethyl)phenyl]sulfonyl]-hydrazide]"
250,2620 nM,"Cc1cccc(S(=O)(=O)NNC(=O)c2cc3cc(C)ccc3o2)c1 [Example 80, 2-Benzofurancarboxylic acid, 5-methyl-, 2-([3-methylphenyl)sulfonyl]hydrazide]"
310,1740 nM,"Cc1ccc2oc(C(=O)NNS(=O)(=O)c3ccccc3C)cc2c1 [Example 81, 2-Benzofurancarboxylic acid, 5-methyl-, 2-[2-(methylphenyl)sulfonyl]hydrazide]"
510,3280 nM,"Cc1ccc2oc(C(=O)NNS(=O)(=O)c3cccc(Cl)c3C)cc2c1 [Example 82, 2-Benzofurancarboxylic acid, 5-methyl-, 2-[(3-chloro-2-methylphenyl)sulfonyl]-hydrazide]"
